Values after ≈ are worked out from the molar mass of the structure shown. Active and inactive are the calls of the source. The rule behind the calls is not given here.
Assays:
Staphylococcus aureus [1] = experiment: Antimicrobial activity against clinical isolate Staphylococcus aureus Smu9 assessed as inhibition of growth measured after 20 to 24 hrs incubation by CLSI method; assay type: functional; conditions: time 20-24 hrs
Staphylococcus aureus [2] = experiment: Antimicrobial activity against clinical isolate Staphylococcus aureus Smu21 assessed as inhibition of growth measured after 20 to 24 hrs incubation by CLSI method; assay type: functional; conditions: time 20-24 hrs
[3] = test system: Panel NCI-60 (60 carcinoma cell lines); experiment: Cytotoxicity against human panel NCI-60 (60 carcinoma cell lines)cells assessed as cell viability at 10 uM measured after 24 hrs by resazurin assay; assay type: functional, cell-based
Staphylococcus aureus [4] = experiment: Antimicrobial activity against methicillin-resistant Staphylococcus aureus USA300 infected in liquid-based Caenorhabditis elegans co-infection model assessed as rescue of worms by measuring viability at 2 ug/ml incubated for 5 days (reference value: 20%); assay type: functional; conditions: dose 2 µg/ml; time 5 day
Cell membrane [5] = experiment: Induction of membrane permeability in Staphylococcus aureus ATCC 700699 assessed as increase in fluorescence intensity at 4 times of MIC incubated for 15 mins measured for 1 hr by propidium iodide/real time fluorescence based flow cytometry Rvb = 3.5); conditions: time 75.0 min
Staphylococcus aureus [6] = experiment: Antimicrobial activity against methicilline-resistant Staphylococcus aureus ATCC 700699 persisters assessed as bacterial killing at 32 time of MIC concentration measured for every 2 hrs upto 8 hrs by Persisters time course assay; assay type: functional, organism-based
Enterococcus faecium = experiment: Antimicrobial activity against Enterococcus faecium […] assessed as inhibition of biofilm formation after 24 hrs incubation by Real-time monitoring method; assay type: functional
Enterococcus faecalis [7] = experiment: Antimicrobial activity against antibiotic-susceptible Enterococcus faecalis ATCC 29212 assessed as inhibition of biofilm formation by measuring prevention of turbidity after 24 hrs incubation by Real-time monitoring method; assay type: functional
Cell membrane [8] = experiment: Induction of membrane permeability in Staphylococcus aureus ATCC 700699 assessed as increase in fluorescence at 0.5 to 2 times of MIC incubated for 15 mins measured for 1 hr by propidium iodide/real time fluorescence based flow cytometry; assay type: subcellular; conditions: time 75.0 min
Cell membrane [9] = experiment: Induction of membrane permeability in Staphylococcus aureus ATCC 700699 assessed as increase in fluorescence at 4 times of MIC incubated for 15 mins measured for 1 hr by propidium iodide/real time fluorescence based flow cytometry; assay type: subcellular; conditions: time 75.0 min
[10] = Toxicity in Caenorhabditis elegans AU37 assessed as survival at 4 ug/ml measured for 4 days; conditions: 96 h, dose 4 µg/ml, time 4 day
Erythrocyte [11] = experiment: Hemolytic activity in sheep red blood cells assessed as hemolysis at 64 ug/ml incubated for 30 mins relative to control; assay type: toxicity, cell-based, Ovis aries; conditions: 0.5 h, at 64 µg/mL
Staphylococcus aureus [12] = experiment: Antimicrobial activity against antibiotic-resistant Staphylococcus aureus ATCC 33591 assessed as inhibition of visible growth measured after 20 to 24 hrs incubation by CLSI method; assay type: functional; conditions: time 20-24 hrs
Staphylococcus aureus [13] = experiment: Antimicrobial activity against antibiotic-resistant Staphylococcus aureus ATCC BAA-2312 assessed as inhibition of visible growth measured after 20 to 24 hrs incubation by CLSI method; assay type: functional; conditions: time 20-24 hrs
Cell membrane [14] = experiment: Induction of membrane permeability in Staphylococcus aureus ATCC 700699 assessed as increase in fluorescence intensity at 2 times of MIC incubated for 15 mins measured for 1 hr by propidium iodide/real time fluorescence based flow cytometry Rvb = 3.5); assay type: subcellular; conditions: time 75.0 min
Staphylococcus aureus [15] = experiment: Antimicrobial activity against antibiotic-resistant Staphylococcus aureus ATCC 33592 assessed as inhibition of visible growth measured after 20 to 24 hrs incubation by CLSI method; assay type: functional; conditions: time 20-24 hrs
Cell membrane [16] = experiment: Induction of membrane permeability in Staphylococcus aureus ATCC 700699 assessed as increase in fluorescence intensity at 1 times of MIC incubated for 15 mins measured for 1 hr by propidium iodide/real time fluorescence based flow cytometry Rvb = 3.5); conditions: time 75.0 min
[17] = Toxicity in Caenorhabditis elegans AU37 assessed as survival at 20 ug/ml measured for 4 days; conditions: at 20 µg/mL, time 4 day
Staphylococcus aureus [18] = experiment: Antimicrobial activity against Staphylococcus aureus ATCC 25923 assessed as inhibition of biofilm formation by measuring prevention of turbidity after 24 hrs incubation by Real-time monitoring method; assay type: functional
Staphylococcus aureus [19] = experiment: In vivo antimicrobial activity against Staphylococcus aureus USA300 infected in Caenorhabditis elegans AU37 nematodes assessed as viability of nematodes incubated for 5 days by susceptibility test; assay type: functional; conditions: USA300, 120 h, time 5 day
Bacillus subtilis = experiment: Antimicrobial activity against antibiotic-resistant Bacillus subtilis ATCC 6623 assessed as inhibition of visible growth measured after 20 to 24 hrs incubation by CLSI method; assay type: functional; conditions: time 20-24 hrs
Staphylococcus aureus [20] = experiment: Antimicrobial activity against clinical isolate Staphylococcus aureus Smu81 assessed as inhibition of growth measured after 20 to 24 hrs incubation by CLSI method; assay type: functional; conditions: time 20-24 hrs
Enterococcus faecalis [21] = experiment: Antimicrobial activity against Enterococcus faecalis ATCC 29212 assessed as inhibition of biofilm formation by measuring prevention of turbidity after 24 hrs incubation by Real-time monitoring method; assay type: functional
Staphylococcus aureus [22] = experiment: In vivo antimicrobial activity against Staphylococcus aureus Newman infected in Caenorhabditis elegans AU37 nematodes assessed as viability of nematodes incubated for 5 days by susceptibility test; assay type: functional; conditions: 120 h, time 5 day
Staphylococcus aureus [23] = experiment: In vivo antimicrobial activity against Staphylococcus aureus UAMS-1 infected in Caenorhabditis elegans AU37 nematodes assessed as viability of nematodes incubated for 5 days by susceptibility test; assay type: functional; conditions: UAMS-1, 120 h, time 5 day
Cell membrane [24] = experiment: Induction of membrane permeability in Staphylococcus aureus ATCC 700699 assessed as increase in fluorescence at 8 times of MIC incubated for 15 mins measured for 1 hr by propidium iodide/real time fluorescence based flow cytometry; assay type: subcellular
Staphylococcus aureus [25] = experiment: Antimicrobial activity against Staphylococcus aureus UAB159 assessed as inhibition of growth measured after 20 to 24 hrs incubation by CLSI method; assay type: functional; conditions: time 20-24 hrs
Staphylococcus aureus [26] = experiment: Antimicrobial activity against methicillin-resistant Staphylococcus aureus USA300 infected in liquid-based Caenorhabditis elegans co-infection model assessed as rescue of worms by measuring viability at 4 ug/ml incubated for 5 days (reference value: 20%); assay type: functional; conditions: dose 4 µg/ml; time 5 day
Erythrocyte [27] = experiment: Hemolytic activity in sheep red blood cells assessed as hemolysis at 16 to 32 ug/ml incubated for 30 mins relative to control; assay type: toxicity, cell-based, Ovis aries; conditions: 0.5 h, dose 16-32 µg/ml
Staphylococcus aureus [28] = experiment: Antimicrobial activity against methicillin-resistant Staphylococcus aureus USA300 infected in liquid-based Caenorhabditis elegans co-infection model assessed as rescue of worms by measuring viability at 1 ug/ml incubated for 5 days (reference value: 20%); assay type: functional; conditions: dose 1 µg/ml; time 5 day
Staphylococcus aureus [29] = experiment: Bactericidal activity in antibiotic-resistant Staphylococcus aureus ATCC 700699 assessed as reduction in viable cell count at 4 times of MIC measured upto 24 hrs by time kill assay; assay type: functional, organism-based

O=C(O)c1ccc(-n2cc(CNc3ccc(Cl)c(C(F)(F)F)c3)c(-c3cccc(F)c3)n2)cc1
MIC (Staphylococcus aureus [1]): 2 µg/mL (≈ 4.08 µM) | MIC (Staphylococcus aureus [2]): 4 µg/mL (≈ 8.17 µM) | Activity [3]: inactive | Activity (Staphylococcus aureus [4]): 90% | Activity (Cell membrane [5]): 95.6% | Activity (Staphylococcus aureus [6]): Active | MBIC (Enterococcus faecium): 8 µg/mL | MBBC (Enterococcus faecalis [7]): 16 µg/mL | Activity (Cell membrane [8]): inactive | Activity (Cell membrane [9]): Active | Activity [10]: Non-Toxic | Activity (Erythrocyte [11]): < 10% | MIC (Staphylococcus aureus [12]): 1 µg/mL (≈ 2.04 µM) | MIC (Staphylococcus aureus [13]): 1 µg/mL (≈ 2.04 µM) | Activity (Cell membrane [14]): 32.3% | MIC (Staphylococcus aureus [15]): 1 µg/mL (≈ 2.04 µM) | Activity (Cell membrane [16]): 22.3% | survival at 96 h, 20 ug/ml [17]: > 80% | MIC (Staphylococcus aureus [18]): 4 µg/mL (≈ 8.17 µM) | MIC (Staphylococcus aureus [19]): 2 µg/mL (≈ 4.08 µM) | MIC (Bacillus subtilis): 0.5 µg/mL (≈ 1.02 µM) | MIC (Staphylococcus aureus [20]): 4 µg/mL (≈ 8.17 µM) | MIC (Enterococcus faecalis [21]): 8 µg/mL (≈ 16.3 µM) | MIC (Staphylococcus aureus [22]): 1 µg/mL (≈ 2.04 µM) | MIC (Staphylococcus aureus [23]): 1 µg/mL (≈ 2.04 µM) | Activity (Cell membrane [24]): inactive | MIC (Staphylococcus aureus [25]): 4 µg/mL (≈ 8.17 µM) | Activity (Staphylococcus aureus [26]): 90% | Activity (Erythrocyte [27]): Non-Toxic | Activity (Staphylococcus aureus [28]): 90% | Activity (Staphylococcus aureus [29]): Active
